{"source": "patent US6537948B1", "about": "“Uracil compounds and use thereof” (Sumitomo Chemical Company, Limited, priority 2000, dated 2003)", "key": {"wild oat (Avena fatua) [1]": {"system": "wild oat (Avena fatua)", "assay": "Test Example 7: foliar spray, herbicidal activity index", "format": "in vivo", "details": "4 days after application, index 0-10", "description": "(§1) A plastic pot having longer side of 27 cm, shorter side of 19 cm and depth of 7 cm was filled with soil and then seeded with large crabgrass (Digitaria sanguinalis) and giant foxtail (Setaria faberi). Nine days after, barnyardgrass (Echinochloa crus-galli) was seeded therein and grown for 15 days in a greenhouse. Further, a plastic pot having longer side of 16.5 cm, shorter side of 12 cm and depth of 7 cm was filled with soil and then seeded with wild oat (Avena fatua), and grown for 18 days in a greenhouse. Then, each of the present compound 1-45 and B was formulated into an emulsifiable concentrate according to Formulation Example 2 and then diluted to the prescribed amount with water containing a spreading agent and the dilution was uniformly sprayed over the foliage of the test plants with a sprayer at a rate of 1000 liters per hectare. After the application, the test plants were grown in the greenhouse for 4 days, and the herbicidal activity was examined. (In the Table 13, the test plants are shown as follows.\n(§2) Barnyardgrass: B, Large crabgrass: LC, Giant foxtail: GF, Wild oat: W"}, "[2]": {"system": "giant foxtail (Setaria faberi)", "assay": "Test Example 7: foliar spray, herbicidal activity index", "format": "in vivo", "details": "4 days after application, index 0-10", "description": "as §1, §2"}, "[3]": {"system": "large crabgrass (Digitaria sanguinalis)", "assay": "Test Example 7: foliar spray, herbicidal activity index", "format": "in vivo", "details": "4 days after application, index 0-10", "description": "as §1, §2"}, "[4]": {"system": "barnyardgrass (Echinochloa crus-galli)", "assay": "Test Example 7: foliar spray, herbicidal activity index", "format": "in vivo", "details": "4 days after application, index 0-10", "description": "as §1, §2"}, "[5]": {"system": "large crabgrass (Digitaria sanguinalis)", "assay": "Test Example 6: foliar spray, herbicidal activity index", "format": "in vivo", "details": "4 days after application, index 0-10", "description": "as §1, with “1-67” for “1-45”, “A” for “B”, “1000liters” for “1000 liters”, “12,” for “13,”\nas §2"}, "wild oat (Avena fatua) [6]": {"system": "wild oat (Avena fatua)", "assay": "Test Example 6: foliar spray, herbicidal activity index", "format": "in vivo", "details": "4 days after application, index 0-10", "description": "as §1, with “1-67” for “1-45”, “A” for “B”, “1000liters” for “1000 liters”, “12,” for “13,”\nas §2"}, "[7]": {"system": "giant foxtail (Setaria faberi)", "assay": "Test Example 6: foliar spray, herbicidal activity index", "format": "in vivo", "parameters": "key: “0” means that there was no or little difference in the degree of germination or growth between the treated and the untreated tested plants at the time of examination; “10” means that the test plants died complete or their germination or growth was completely inhibited", "details": "4 days after application, index 0-10", "description": "as §1, with “1-67” for “1-45”, “A” for “B”, “1000liters” for “1000 liters”, “12,” for “13,”\nas §2"}, "[8]": {"system": "barnyardgrass (Echinochloa crus-galli)", "assay": "Test Example 6: foliar spray, herbicidal activity index", "format": "in vivo", "parameters": "key: “0” means that there was no or little difference in the degree of germination or growth between the treated and the untreated tested plants at the time of examination; “10” means that the test plants died complete or their germination or growth was completely inhibited", "details": "4 days after application, index 0-10", "description": "as §1, with “1-67” for “1-45”, “A” for “B”, “1000liters” for “1000 liters”, “12,” for “13,”\nas §2"}, "[9]": {"system": "ivyleaf morningglory (Ipomoea hederacea)", "assay": "Test Example 3: foliar treatment of field", "format": "in vivo", "details": "foliar spray, dosage 16 g/ha, 25 days after application", "description": "(§3) A plastic pot having longer side of 27 cm, shorter side of 20 cm and depth of 7.5 cm was filled with soil and then seeded with ivyleaf morningglory (Ipomoea hederacea) and common cocklebur (Xanthium pensylvanicum). These test plants were grown in a greenhouse for 10 days. Then, therein, transplanted were common lambsquarters (Chenopodium album), redroot pigweed and giant foxtail (Setaria faberi) which had been seeded and grown for 14 days in a green house in advance. The test plants were further grown in the greenhouse for 8 days. After then, present compound 1-12 was formulated into an emulsifiable concentrate according to Formulation Example 2 and then diluted to the prescribed amount with water containing a spreading agent and the dilution was uniformly sprayed over the foliage of the test plants with a sprayer at a rate of 1000 liters per hectare. After the application, the test plants were grown in the greenhouse for 25 days, and the herbicidal activity was examined."}, "[10]": {"system": "giant foxtail (Setaria faberi)", "assay": "Test Example 3: foliar treatment of field", "format": "in vivo", "details": "foliar spray, dosage 16 g/ha, 25 days after application", "description": "as §3"}, "[11]": {"system": "common lambsquarters (Chenopodium album)", "assay": "Test Example 3: foliar treatment of field", "format": "in vivo", "details": "foliar spray, dosage 16 g/ha, 25 days after application", "description": "as §3"}, "[12]": {"system": "common cocklebur (Xanthium pensylvanicum)", "assay": "Test Example 3: foliar treatment of field", "format": "in vivo", "details": "foliar spray, dosage 16 g/ha, 25 days after application", "description": "as §3"}, "[13]": {"system": "pale smartweed (Polygonum lapathifolium)", "assay": "Test Example 4: soil surface treatment of field", "format": "in vivo", "details": "soil surface spray, dosage 250 g/ha, 25 days after application", "description": "(§4) A plastic pot having longer side of 32 cm, shorter side of 22 cm and depth of 8 cm was filled with soil and then seeded with hemp sesbania (Sesbania exaltata), black nightshade (Solanum nigrum), velvetleaf (Abutilon theophrasti), pale smartweed (Polygonum lapathifolium), common lambsquarters (Chenopodium album) and giant foxtail (Setaria faberi). Then, the present compound 1-12 was formulated into an emulsifiable concentrate according to Formulation Example 2 and then diluted to the prescribed amount with water, and the dilution was uniformly sprayed over the surface of the soil with a sprayer at a rate of 1000 liters per hectare. After the application, the test plants were grown in the greenhouse for 25 days, and the herbicidal activity was examined."}, "[14]": {"system": "hemp sesbania (Sesbania exaltata)", "assay": "Test Example 4: soil surface treatment of field", "format": "in vivo", "details": "soil surface spray, dosage 250 g/ha, 25 days after application", "description": "as §4"}, "[15]": {"system": "giant foxtail (Setaria faberi)", "assay": "Test Example 4: soil surface treatment of field", "format": "in vivo", "details": "soil surface spray, dosage 250 g/ha, 25 days after application", "description": "as §4"}, "[16]": {"system": "common lambsquarters (Chenopodium album)", "assay": "Test Example 4: soil surface treatment of field", "format": "in vivo", "details": "soil surface spray, dosage 250 g/ha, 25 days after application", "description": "as §4"}, "[17]": {"system": "velvetleaf (Abutilon theophrasti)", "assay": "Test Example 4: soil surface treatment of field", "format": "in vivo", "details": "soil surface spray, dosage 250 g/ha, 25 days after application", "description": "as §4"}, "[18]": {"system": "black nightshade (Solanum nigrum)", "assay": "Test Example 4: soil surface treatment of field", "format": "in vivo", "details": "soil surface spray, dosage 250 g/ha, 25 days after application", "description": "as §4"}, "redroot pigweed": {"system": "redroot pigweed", "assay": "Test Example 3: foliar treatment of field", "format": "in vivo, Amaranthus retroflexus", "details": "foliar spray, dosage 16 g/ha, 25 days after application", "description": "as §3"}}, "data": [{"smiles": "COc1nc(OC)nc(Oc2cc(-n3c(=O)cc(C(F)(F)F)n(C)c3=O)c(F)cc2Cl)n1", "note": "[B, reference compound]", "values": [{"measurement": "Herbicidal activity W", "setting": "wild oat (Avena fatua) [1]; dosage 32 g/ha", "value": 6}, {"measurement": "Herbicidal activity W", "setting": "wild oat (Avena fatua) [1]; dosage 125 g/ha", "value": 9}, {"measurement": "Herbicidal activity GF", "setting": "[2]; dosage 32 g/ha", "value": 6}, {"measurement": "Herbicidal activity GF", "setting": "[2]; dosage 125 g/ha", "value": 8}, {"measurement": "Herbicidal activity LC", "setting": "[3]; dosage 32 g/ha", "value": 8}, {"measurement": "Herbicidal activity LC", "setting": "[3]; dosage 125 g/ha", "value": 8}, {"measurement": "Herbicidal activity B", "setting": "[4]; dosage 32 g/ha", "value": 6}, {"measurement": "Herbicidal activity B", "setting": "[4]; dosage 125 g/ha", "value": 8}]}, {"smiles": "COC(=O)COc1cc(OC)nc(Nc2cc(-n3c(=O)cc(C(F)(F)F)n(C)c3=O)c(F)cc2Cl)n1", "note": "[Compound 1-67, 2-{2-chloro-4-fluoro-5-[3-methyl-2,6-dioxo-4-(trifluoromethyl)-1,2,3,6-tetrahydropyrimidin-1-yl]phenylamino}-6-methoxy-4-(methoxycarbonyl)methoxypyrimidine]", "values": [{"measurement": "Herbicidal activity LC", "setting": "[5]; dosage 32 g/ha", "value": 9}, {"measurement": "Herbicidal activity LC", "setting": "[5]; dosage 125 g/ha", "value": 9}, {"measurement": "Herbicidal activity W", "setting": "wild oat (Avena fatua) [6]; dosage 32 g/ha", "value": 8}, {"measurement": "Herbicidal activity W", "setting": "wild oat (Avena fatua) [6]; dosage 125 g/ha", "value": 9}, {"measurement": "Herbicidal activity GF", "setting": "[7]; dosage 32 g/ha", "value": 10}, {"measurement": "Herbicidal activity GF", "setting": "[7]; dosage 125 g/ha", "value": 10}, {"measurement": "Herbicidal activity B", "setting": "[8]; dosage 32 g/ha", "value": 10}, {"measurement": "Herbicidal activity B", "setting": "[8]; dosage 125 g/ha", "value": 10}]}, {"smiles": "COC(=O)C(C)Oc1cnc(Oc2cc(-n3c(=O)cc(C(F)(F)F)n(C)c3=O)c(F)cc2Cl)nc1", "note": "(centres unmarked) [Compound 1-12, methyl 2-([2-{2-chloro-4-fluoro-5-[3-methyl-2,6-dioxo-4-(trifluoromethyl)-1,2,3,6-tetrahydropyrimidin-1-yl]phenoxy}pyrimidin-5-yl]oxy)propionate]", "values": [{"measurement": "growth of ivyleaf morningglory (herbicidal activity)", "setting": "[9]", "value": "completely controlled"}, {"measurement": "growth of giant foxtail (herbicidal activity)", "setting": "[10]", "value": "completely controlled"}, {"measurement": "growth of common lambsquarters (herbicidal activity)", "setting": "[11]", "value": "completely controlled"}, {"measurement": "growth of common cocklebur (herbicidal activity)", "setting": "[12]", "value": "completely controlled"}, {"measurement": "growth of pale smartweed (herbicidal activity)", "setting": "[13]", "value": "completely controlled"}, {"measurement": "growth of hemp sesbania (herbicidal activity)", "setting": "[14]", "value": "completely controlled"}, {"measurement": "growth of giant foxtail (herbicidal activity)", "setting": "[15]", "value": "completely controlled"}, {"measurement": "growth of common lambsquarters (herbicidal activity)", "setting": "[16]", "value": "completely controlled"}, {"measurement": "growth of velvetleaf (herbicidal activity)", "setting": "[17]", "value": "completely controlled"}, {"measurement": "growth of black nightshade (herbicidal activity)", "setting": "[18]", "value": "completely controlled"}, {"measurement": "growth of redroot pigweed (herbicidal activity)", "setting": "redroot pigweed", "value": "completely controlled"}]}, {"smiles": "COc1cc(OC)nc(Nc2cc(-n3c(=O)cc(C(F)(F)F)n(C)c3=O)c(F)cc2Cl)n1", "note": "[A, reference compound]", "values": [{"measurement": "Herbicidal activity LC", "setting": "[5]; dosage 32 g/ha", "value": 6}, {"measurement": "Herbicidal activity LC", "setting": "[5]; dosage 125 g/ha", "value": 8}, {"measurement": "Herbicidal activity W", "setting": "wild oat (Avena fatua) [6]; dosage 32 g/ha", "value": 2}, {"measurement": "Herbicidal activity W", "setting": "wild oat (Avena fatua) [6]; dosage 125 g/ha", "value": 3}, {"measurement": "Herbicidal activity GF", "setting": "[7]; dosage 32 g/ha", "value": 4}, {"measurement": "Herbicidal activity GF", "setting": "[7]; dosage 125 g/ha", "value": 5}, {"measurement": "Herbicidal activity B", "setting": "[8]; dosage 32 g/ha", "value": 4}, {"measurement": "Herbicidal activity B", "setting": "[8]; dosage 125 g/ha", "value": 4}]}]}
